Tests used:
INS-1 pancreatic β-cells = experiment: Insulin secretion from INS-1 pancreatic β-cells (ELISA, normalised to cellular protein); assay type: cell-based; details: 100 μM ester in GLT RPMI-1640 medium for 5 days; 2 h secretagogue cocktail stimulation
Protocol: INS-1 pancreatic B-cells were cultured for 5 days in standard RPMI-1640 tissue culture media or GLT RPMI-1640 media. The media were either used without further supplementation (used as controls) or were independently supplemented with either 10 mM of L-carnosine or with 100 μM of a carnosine ester (L-carnosine methyl ester, L-carnosine ethyl ester, and L-carnosine iso-propyl ester investigated). INS-1 cells were then treated with KRB or KRB supplemented with secretagogue cocktail (13.5 mM glucose, 1 μM phorbol 12-myristate 13-acetate, 1 mM isobutyl-methylxanthine, 1 mM tolbutamide, 10 mM leucine, 10 mM glutamine) as a stimulant of insulin secretion for 2 h. Insulin secretion was determined by ELISA assay, with data normalised to cellular protein content.

[1] = system: C2C12 skeletal muscle cells; experiment: Toxicity testing of carnosine esters (Calcein AM cell viability); assay type: cell-based; details: 100 μM ester in GLT RPMI-1640 medium, 5 days culture, versus control medium
Protocol: C2C12 muscle cell myotubes were cultured for 5 days in the following four culture media: a control RPMI-1640 medium; glucolipotoxic (GLT) RPMI-1640 medium (28 mM glucose, 200 μM palmitic acid and 200 μM oleic acid) supplemented with 100 μM of L-carnosine methyl ester; GLT RPMI-1640 medium supplemented with 100 μM of L-carnosine ethyl ester; and GLT RPMI-1640 medium supplemented with 100 μM of L-carnosine iso-propyl ester. Following culture, media were aspirated and cells washed 3 times in Krebs-Ringer buffer (KRB). A final concentration of 5 μM Calcein AM Cell Viability Dye (ThermoFischer) in KRB was loaded for 1 h before washing again with KRB. Cell viability was measured via fluorescence, with excitation and emission at 490 nm and 520 nm, respectively.

[2] = system: C2C12 skeletal muscle cells; experiment: Reactive species scavenging ability (DCFDA fluorescence); assay type: cell-based; details: 100 μM ester for 1 h after 5 days culture in GLT RPMI-1640 media
Protocol: C2C12 muscle cell myotubes were cultured for 5 days in standard RPMI-1640 tissue culture media or GLT RPMI-1640 media. Corresponding media were then replaced and supplemented independently with 100 μM of a carnosine ester (L-carnosine methyl ester, L-carnosine ethyl ester, and L-carnosine iso-propyl ester investigated) for 1 h. Non-supplemented standard and GLT RPMI-1640 media were also retained as controls. Cells were thereafter washed 3 times in KRB and 20 μM 2′,7′-dichlorofluorescein diacetate (DCFDA), a cell permeant fluorogenic dye that measures hydroxyl, peroxyl and other ROS, was loaded for 1 h. Reactive species detection was measured via fluorescence, with excitation at 495 nm and emission at 530 nm.

[3] = system: High fat-fed spontaneously diabetic mice; experiment: Glucose tolerance test in an in vivo model of type-2 diabetes; details: 45 mg/kg body weight/day in diet
Protocol: High fat-fed spontaneously diabetic mice were used as an animal model of type-2 diabetes. A glucose tolerance test was performed on three sets of mice, wherein the mice were initially fasted for 6 h. A […] glucose solution was then administered to the three sets of mice in their drinking water and their blood glucose concentrations (mmol/L) monitored over a period of 2 h. The following three sets of mice were used in the study: • Non-diabetic, non-high fat-fed mice. • Spontaneously diabetic high fat-fed mice. • Spontaneously diabetic high fat-fed mice whose diet also included 45 mg/kg body weight/day of L-carnosine iso-propyl ester.
Spontaneously diabetic high fat-fed mice were defined as mice which had been fed the following high fat diet from Research Diets: (60% fat; D12492). Non-diabetic, non-high fat-fed mice were used as a control and were fed the following low fat diet from Research Diets: (10% fat, D12450B). The body weights of the mice on the two different diets were measured throughout.

| Structure (SMILES) | insulin secretion in cells exposed to glucolipotoxicity (GLT) (INS-1 pancreatic β-cells) | cell viability [1] | intracellular reactive species (GLT-associated reactive species levels) [2] | toxic effects on the animals ([3]; high fat-fed mice) | glucose tolerance ([3]; spontaneously diabetic high fat-fed mice, 6 h fast) | blood glucose concentrations at the end of the study (2 h) ([3]; versus high fat-fed mice only administered the high fat diet) |
| --- | --- | --- | --- | --- | --- | --- |
| CCOC(=O)[C@H](Cc1cnc[nH]1)NC(=O)CCN [L-carnosine ethyl ester] | reverse glucolipotoxic inhibition of insulin secretion | non-toxic | return to control values | – | – | – |
| CC(C)OC(=O)[C@H](Cc1cnc[nH]1)NC(=O)CCN [L-carnosine iso-propyl ester] | reverse glucolipotoxic inhibition of insulin secretion | non-toxic | return to control values | no toxic effects | significantly improved glucose tolerance | significantly lower |
| COC(=O)[C@H](Cc1cnc[nH]1)NC(=O)CCN [L-carnosine methyl ester] | reverse glucolipotoxic inhibition of insulin secretion | non-toxic | return to control values | – | – | – |

Reference: patent US20240252469A1, “Carnosine Analogs for Use in the Treatment of Metabolic Disorders” (priority 2021, published 2024)
